Measurements: patent publication US11771709B2, “ALK protein degradation agent and anti-tumor application thereof” (ShanghaiTech University, priority 2017, dated 2023)
Read-outs that look alike come from different tables or passages of the source.

Tests used:
Format in all cases: cell-based
[1] = biological target: T1, ALK protein in SR (NPM-ALK) cells (Homo sapiens, UniProt Q9UM73); test: Western blot of ALK protein level (degradation, DC50), ALK phosphorylation and downstream signaling in SR cells; details: for ALK protein degradation within a time course: SR cells, 100 nM, 4 hours (SIAIS1210117), up to 24 hours (epimer)
T1 construct: NPM (nucleophosmin, NPM1, P06748) fusion partner; host or cells: SR (ALCL) cells; the other entry of the earlier key: NPM1 (P06748, Nucleophosmin)

ALK protein in SR cells = biological target: T2, ALK protein in SR cells (Homo sapiens, UniProt Q9UM73); test: Block of ALK degradation by proteosome inhibitors MG132 and MLN4924 in SR cells
T2 construct: NPM (nucleophosmin, NPM1, P06748) fusion partner; host or cells: SR (ALCL) cells; the other entry of the earlier key: NPM1 (P06748, Nucleophosmin)
Description: To further validate the degradation effect act through proteosome mediated pathway, we also treated cells with two different proteosome inhibitors MG132 and MLN4924 to block protein degradation (FIG. 16).

PC9Brc1 cells = test: Colony formation assay in PC9Brc1 cells; details: PC9 Brc1 cells
Experimental: (§1) Cell were digested to become single cell suspension. Cells were seeded in the intensity of 250 cells/well in 12 well plate. Treated cells at the concentration of 100, 250, 500 nM. Fixed cells 2-3 weeks after and stained cells with crystyl violate.
(§2) ALK PROTAD compound SIAIS1210117 and its negative control epimer SIAIS219050 were used.

SR (NPM-ALK) cells = test: Growth inhibition IC50 in ALCL SR cells (CCK8/WST, 72 hours); details: 72 h, SR cells, WST; Brigatinib-based PROTAD molecules (Table 3)
[2] = tested on: NCI-H2228 (EML4-ALK, V3) cells; test: Growth inhibition IC50 in lung adenocarcinoma H2228 cells (WST); details: Homo sapiens, WST (Table 3)
Description: Experiments were repeated at least three times.
Besides above, we also tested the dosage-dependent effects on the growth inhibition in H2228 cells. […] (Table 3).

Ba/F3 (EML4-ALK/WT) = biological target: T3, Ba/F3 (EML4-ALK/WT) (Homo sapiens, UniProt Q9UM73); test: Growth inhibition IC50 in Ba/F3 cells expressing EML4-ALK wild type
T3 construct: Q9HC35 (Echinoderm microtubule-associated protein-like 4)

Ba/F3 (EML4-ALK/L1196M) = biological target: T4, Ba/F3 (EML4-ALK/L1196M) (Homo sapiens, UniProt Q9UM73, L1196M, cells depend on it); test: Growth inhibition IC50 in Ba/F3 cells expressing EML4-ALK L1196M
T4 construct: Q9HC35 (Echinoderm microtubule-associated protein-like 4)

Ba/F3 (EML4-ALK/C1156Y) = biological target: T5, Ba/F3 (EML4-ALK/C1156Y) (Homo sapiens, UniProt Q9UM73, C1156Y, cells depend on it); test: Growth inhibition IC50 in Ba/F3 cells expressing EML4-ALK C1156Y
T5 construct: Q9HC35 (Echinoderm microtubule-associated protein-like 4)

[3] = tested on: PC9 (EGFR, exon 19 del) cells; test: Growth inhibition IC50 in EGFR mutant lung adenocarcinoma PC9 cells; details: Homo sapiens, PC-9; PC9 cells, CTB, n ≥ 3; read-out: Half Inhibitory Concentration (IC50) Mean
[4] = tested on: PC9Brc1 (EGFR, exon 19 del+T790M) cells; test: Growth inhibition IC50 in EGFR mutant lung cancer PC9Brc1 cells; details: CTB, n ≥ 3, read-out: Half Inhibitory Concentration (IC50) Mean
[5] = tested on: SW48 cell line (EGFR G719S); test: Growth inhibition IC50 in EGFR G719S colorectal cancer cell line SW48; details: Homo sapiens, CTG, n = 2, read-out: Half Inhibitory Concentration (IC50) Mean
[6] = tested on: U118MG cells (FIG-ROS1 gene fusion); test: Growth inhibition IC50 in ROS1 mutant glioblastoma cell line U118MG (72 hours); details: Homo sapiens, U-118-MG, U118MG cells, 72 hours
MOLM13 cells (FLT3-ITD) = test: Growth inhibition IC50 in FLT3-ITD AML cell line MOLM13; details: Homo sapiens, MOLM-13; MOLM13 cells, n = 2, reagent CTG; read-out: Half Inhibitory Concentration (IC50) Mean
H2228 cells (EML4-ALK) = test: Colony formation assay in H2228 cells; details: about 2 weeks
Experimental: as §1
In order to see the effect of ALK PROTAD compounds on the colony formation ability of cancer cells, EML4-ALK mutant lung cancer cells H2228 were firstly seeded in 12 well plate at the density of 200 cells per well. Cells were treated with different ALK PROTAD compounds at different concentration for about 2 weeks.

PC9 cells = test: Colony formation assay in PC9 cells
Experimental: as §1, §2

| reduction of ALK protein level and its block by MG132 and MLN4924 (ALK protein in SR cells) | IC50 [2] [nM] | GI50 (Ba/F3 (EML4-ALK/WT)) [nM] | GI50 (Ba/F3 (EML4-ALK/L1196M)) [nM] | GI50 (Ba/F3 (EML4-ALK/C1156Y)) [nM] | IC50 [3] [nM] | IC50 [4] [nM] | IC50 [5] [nM] | IC50 ([6]; n = 2, reagent CTG, read-out: Half Inhibitory Concentration (IC50) Mean) [nM] | IC50 ([6]; read-out: IC50) [nM] | IC50 (MOLM13 cells (FLT3-ITD)) [nM] | DC50 ([1]; ALK protein degradation in SR cells) [nM] | SMILES | ALK protein degradation within a time course [1] | colony formation (PC9Brc1 cells) | IC50 (SR (NPM-ALK) cells) [nM] | colony formation (H2228 cells (EML4-ALK)) | colony formation (PC9 cells) |
| --- | --- | --- | --- | --- | --- | --- | --- | --- | --- | --- | --- | --- | --- | --- | --- | --- | --- |
| did not have such effect | – | – | – | – | – | – | – | – | – | – | – | COc1cc(N2CCC(NC(=O)CCCCCCCCCC(=O)N[C@H](C(=O)N3C[C@@H](O)C[C@H]3C(=O)NCc3ccc(-c4scnc4C)cc3)C(C)(C)C)CC2)ccc1Nc1ncc(Cl)c(Nc2ccccc2P(C)(C)=O)n1 [SIAIS219050, N1-(1-(4-((5-chloro-4-((2-(dimethylphosphoryl)phenyl)amino)pyrimidin-2-yl)amino)-3-methoxyphenyl)piperidin-4-yl)-N11-((S)-1-((2S,4S)-4-hydroxy-2-((4-(4-methylthiazol-5-yl)benzyl)carbamoyl)pyrrolidin-1-yl)-3,3-dimethyl-1-oxobutan-2-yl)undecanediamide] | did not induce degradation of ALK protein | could not | – | – | – |
| able to be blocked | 30.3 | 123 | 170 | 120 | 106 | 460 | 1360 | 920 | ~920 | 345 | 0.5 to 10 | COc1cc(N2CCC(NC(=O)CCCCCCCCCC(=O)N[C@H](C(=O)N3C[C@H](O)C[C@H]3C(=O)NCc3ccc(-c4scnc4C)cc3)C(C)(C)C)CC2)ccc1Nc1ncc(Cl)c(Nc2ccccc2P(C)(C)=O)n1 [SIAIS1210117, N1-(1-(4-((5-chloro-4-((2-(dimethylphosphoryl)phenyl)amino)pyrimidin-2-yl)amino)-3-methoxyphenyl)piperidin-4-yl)-N11-((S)-1-((2S,4R)-4-hydroxy-2-((4-(4-methylthiazol-5-yl)benzyl)carbamoyl)pyrrolidin-1-yl)-3,3-dimethyl-1-oxobutan-2-yl)undecanediamide] | significant ALK protein degradation | able to inhibit | 1.7 ± 1 | dramatically inhibited | able to inhibit |
